Patent US20100273876A1, “ANTIBACTERIAL FORMULATION COMPRISING A DIALKYL SULPHOSUCCINATE AND A CARBANILIDE ANTIBACTERIAL AGENT” (priority 2007, published 2010)

How the values were obtained:
Assay type in all cases: cell-based, Propionibacterium acnes
P. acnes PRP-003 = assay: (S)DDA disc diffusion
Description: (§1) The propionibacteria were cultured and maintained on Wilkins-Chalgren Anaerobe Medium (agar and broth) at pH 6.0; all cultures were incubated anaerobically at 37° C. for 72 hours.
(§2) A sterile paper disc was impregnated with a sample of the test compound in a suitable solvent and 30 minutes allowed for the solvents to evaporate (where possible). The disc was then placed on an agar plate onto which the test micro-organism had been inoculated. The plate was then incubated under the conditions described above, following which it was examined visually for signs of microbial growth. If the test compound had antimicrobial activity, a circular zone of no growth would be obtained around the disc. The diameter of this zone of “inhibition” was measured using a ProtoCOL™ automated zone sizer (Synbiosis, Cambridge, UK). In general, a greater diameter and/or area of the zone of inhibition indicates a greater antimicrobial activity in the relevant test compound, although other factors such as test compound mobility through the agar gel may also influence the result.
(§3) Two test a compounds A and B were placed on a single paper disc and the above described DDA procedure repeated. An increase in diameter of the zone of inhibition, compared to the greater of the zone diameters for the two compounds individually, was taken to indicate potential antimicrobial synergy. In practical terms, an increase of greater than 5 mm could be treated as significant.
(§4) Both the DDA and the SDDA test may be carried out using an agar gel supplemented with lipid and/or salt to simulate some of the major components present in human skin and to assess whether these substances might reduce the antimicrobial activity observed for the test compound. Performance under these conditions can provide a more reliable indication of activity on topical application. The supplements used in Examples 1, 11, 12 and 13 below were lipid (either Tween™ 80 at 1% v/v (Example 1) or triolein at 1% v/v (Examples 11, 12 and 13) and sodium chloride (100 mM).

P. acnes PRP-010 = assay: (S)DDA disc diffusion
Description: as §1, §2, §3, §4

P. acnes PRP-053 = assay: (S)DDA disc diffusion
Description: as §1, §2, §3, §4

P. acnes PRP-002 = assay: (S)DDA disc diffusion
Description: as §1, §2, §3, §4

P. acnes PRP-007 = assay: (S)DDA disc diffusion
Description: as §1, §2, §3, §4

P. acnes PRP-101 = assay: (S)DDA disc diffusion
Description: as §1, §2, §3, §4

P. acnes PRP-004 = assay: (S)DDA disc diffusion
Description: as §1, §2, §3, §4

P. acnes PRP-017 = assay: (S)DDA disc diffusion
Description: as §1, §2, §3, §4

P. acnes PRP-039 = assay: (S)DDA disc diffusion; conditions: for DDA: P. acnes PRP-039 (Tet/MLS), 200 μg TCC or 50 μg DOSS per disc
Description: as §1, §2, §3, §4

P. acnes PRP-023 = assay: (S)DDA disc diffusion
Description: as §1, §2, §3, §4

P. acnes PRP-008 = assay: (S)DDA disc diffusion
Description: as §1, §2, §3, §4

P. acnes PRP-059 = assay: (S)DDA disc diffusion
Description: as §1, §2, §3, §4

P. acnes PRP-026 = assay: (S)DDA disc diffusion
Description: as §1, §2, §3, §4

P. acnes NCTC 737 = assay: Well diffusion assay; conditions: gel (Solutol HS 15, ethanol, hydroxyethyl cellulose, water) with 5% w/w DOSS and/or 0.2% w/w TCC, diluted 1:2 with placebo gel
Description: The propionibacteria were cultured and maintained on Wilkins-Chalgren Anaerobe Medium (agar and broth) at pH 6.0; all cultures were incubated anaerobically at 37° C. for 72 hours. A hole with a diameter of 8 mm was bored into the centre of an agar plate inoculated (swabbed) with the test-microorganism using a sterile “cork” borer (size No. 4). A volume (100 μl unless stated otherwise) of the test compound(s), either formulated or in a suitable solvent, was then placed into the bored hole. The plate was incubated under the conditions described above, following which it was examined visually for signs of microbial growth. If the test compound had antimicrobial activity, a circular zone of no growth would be obtained around the bored hole. The diameter of this zone of “inhibition” was measured using a ProtoCOL™ automated zone sizer (Synbiosis, Cambridge, UK). In general, a greater diameter and/or area of the zone of inhibition indicates a greater antimicrobial activity in the relevant test compound, although other factors such as test compound mobility through the agar gel, and the extent to which a compound is released from a formulation, may also influence the result.

[1] = P. acnes PRP-003 (Tet), 200 μg TCC or 50 μg DOSS per disc
[2] = P. acnes PRP-010 (MLSK), 200 μg TCC or 50 μg DOSS per disc
[3] = P. acnes PRP-053 (Tet/MLS), 200 μg TCC or 50 μg DOSS per disc
[4] = P. acnes PRP-002 (Tet/MLS), 200 μg TCC or 50 μg DOSS per disc
[5] = P. acnes PRP-007 (Clin), 200 μg TCC or 50 μg DOSS per disc
[6] = P. acnes PRP-101 (Tet/MLS), 200 μg TCC or 50 μg DOSS per disc
[7] = P. acnes PRP-004 (Tet), 200 μg TCC or 50 μg DOSS per disc
[8] = P. acnes PRP-017 (MLS), 200 μg TCC or 50 μg DOSS per disc
[9] = P. acnes PRP-023 (MLSK), 200 μg TCC or 50 μg DOSS per disc
[10] = P. acnes PRP-008 (Clin), 200 μg TCC or 50 μg DOSS per disc
[11] = P. acnes PRP-059 (MLS), 200 μg TCC or 50 μg DOSS per disc
[12] = P. acnes PRP-026 (MLS), 200 μg TCC or 50 μg DOSS per disc

Which DDA (P. acnes PRP-003; [1]) does the source give for dioctyl sodium sulphosuccinate [DOSS] here?
The DDA was 27.95 mm.

What about the DDA (P. acnes PRP-003; P. acnes PRP-003, 200 μg per disc) of the same molecule?
The DDA was 42.96 mm.

And the “DDA + salt” value (P. acnes PRP-003; P. acnes PRP-003, 200 μg per disc, sodium chloride 100 mM)?
Its value is 46.69 mm.

And the “DDA + lipid” value (P. acnes PRP-003; P. acnes PRP-003, 200 μg per disc, triolein 1% v/v)?
Its value is 43.58 mm.

And the DDA (P. acnes PRP-010; [2])?
Its DDA is 26.82 mm.

And the DDA (P. acnes PRP-010; P. acnes PRP-010, 200 μg per disc)?
The DDA was 46.69 mm.

What about the “DDA + salt” value (P. acnes PRP-010; P. acnes PRP-010, 200 μg per disc, sodium chloride 100 mM) of the same molecule?
Its value is 46.07 mm.

What about the “DDA + lipid” value (P. acnes PRP-010; P. acnes PRP-010, 200 μg per disc, triolein 1% v/v) of the same molecule?
Its value is 39.84 mm.

What about the DDA (P. acnes PRP-053; [3]) of the same molecule?
Its DDA is 17.78 mm.

And the DDA (P. acnes PRP-053; P. acnes PRP-053, 200 μg per disc)?
The DDA was 49.49 mm.

And the “DDA + salt” value (P. acnes PRP-053; P. acnes PRP-053, 200 μg per disc, sodium chloride 100 mM)?
The value was 44.82 mm.

And the “DDA + lipid” value (P. acnes PRP-053; P. acnes PRP-053, 200 μg per disc, triolein 1% v/v)?
The value was 42.02 mm.

And the DDA (P. acnes PRP-002; [4])?
Its DDA is 31.76 mm.

What about the DDA (P. acnes PRP-002; P. acnes PRP-002, 200 μg per disc) of the same molecule?
The DDA was 49.49 mm.

And the “DDA + salt” value (P. acnes PRP-002; P. acnes PRP-002, 200 μg per disc, sodium chloride 100 mM)?
The value was 51.36 mm.

What about the “DDA + lipid” value (P. acnes PRP-002; P. acnes PRP-002, 200 μg per disc, triolein 1% v/v) of the same molecule?
Its value is 48.25 mm.

What about the DDA (P. acnes PRP-007; [5]) of the same molecule?
Its DDA is 21.38 mm.

And the DDA (P. acnes PRP-007; P. acnes PRP-007, 200 μg per disc)?
The DDA was 47.32 mm.

What about the “DDA + salt” value (P. acnes PRP-007; P. acnes PRP-007, 200 μg per disc, sodium chloride 100 mM) of the same molecule?
Its value is 42.96 mm.

And the “DDA + lipid” value (P. acnes PRP-007; P. acnes PRP-007, 200 μg per disc, triolein 1% v/v)?
Its value is 44.82 mm.

And the DDA (P. acnes PRP-101; [6])?
The DDA was 14.59 mm.

And the DDA (P. acnes PRP-101; P. acnes PRP-101, 200 μg per disc)?
The DDA was 41.40 mm.

And the “DDA + lipid” value (P. acnes PRP-101; P. acnes PRP-101, 200 μg per disc, triolein 1% v/v)?
The value was 40.47 mm.

What about the DDA (P. acnes PRP-004; [7]) of the same molecule?
The DDA was 26.62 mm.

What about the DDA (P. acnes PRP-004; P. acnes PRP-004, 200 μg per disc) of the same molecule?
Its DDA is 48.56 mm.

What about the “DDA + salt” value (P. acnes PRP-004; P. acnes PRP-004, 200 μg per disc, sodium chloride 100 mM) of the same molecule?
The value was 43.27 mm.

And the “DDA + lipid” value (P. acnes PRP-004; P. acnes PRP-004, 200 μg per disc, triolein 1% v/v)?
The value was 46.07 mm.

What about the DDA (P. acnes PRP-017; [8]) of the same molecule?
Its DDA is 28.98 mm.

And the DDA (P. acnes PRP-017; P. acnes PRP-017, 200 μg per disc)?
The DDA was 47.94 mm.

What about the “DDA + salt” value (P. acnes PRP-017; P. acnes PRP-017, 200 μg per disc, sodium chloride 100 mM) of the same molecule?
Its value is 47.63 mm.

And the “DDA + lipid” value (P. acnes PRP-017; P. acnes PRP-017, 200 μg per disc, triolein 1% v/v)?
The value was 44.82 mm.

And the DDA (P. acnes PRP-039)?
The DDA was 23.02 mm.

And the “DDA + salt” value (P. acnes PRP-039; P. acnes PRP-039, 200 μg per disc, sodium chloride 100 mM)?
The value was 46.38 mm.

What about the DDA (P. acnes PRP-023; [9]) of the same molecule?
Its DDA is 26.41 mm.

And the DDA (P. acnes PRP-023; P. acnes PRP-023, 200 μg per disc)?
The DDA was 49.49 mm.

What about the “DDA + salt” value (P. acnes PRP-023; P. acnes PRP-023, 200 μg per disc, sodium chloride 100 mM) of the same molecule?
The value was 47.32 mm.

What about the “DDA + lipid” value (P. acnes PRP-023; P. acnes PRP-023, 200 μg per disc, triolein 1% v/v) of the same molecule?
Its value is 46.38 mm.

What about the DDA (P. acnes PRP-008; [10]) of the same molecule?
The DDA was 24.87 mm.

And the DDA (P. acnes PRP-008; P. acnes PRP-008, 200 μg per disc)?
The DDA was 48.25 mm.

What about the “DDA + salt” value (P. acnes PRP-008; P. acnes PRP-008, 200 μg per disc, sodium chloride 100 mM) of the same molecule?
The value was 48.56 mm.

And the “DDA + lipid” value (P. acnes PRP-008; P. acnes PRP-008, 200 μg per disc, triolein 1% v/v)?
The value was 43.58 mm.

What about the DDA (P. acnes PRP-059; [11]) of the same molecule?
The DDA was 11.82 mm.

And the DDA (P. acnes PRP-059; P. acnes PRP-059, 200 μg per disc)?
Its DDA is 43.58 mm.

What about the “DDA + salt” value (P. acnes PRP-059; P. acnes PRP-059, 200 μg per disc, sodium chloride 100 mM) of the same molecule?
The value was 44.20 mm.

What about the “DDA + lipid” value (P. acnes PRP-059; P. acnes PRP-059, 200 μg per disc, triolein 1% v/v) of the same molecule?
The value was 44.82 mm.

What about the DDA (P. acnes PRP-026; [12]) of the same molecule?
The DDA was 28.26 mm.

And the DDA (P. acnes PRP-026; P. acnes PRP-026, 200 μg per disc)?
Its DDA is 49.81 mm.

And the “DDA + salt” value (P. acnes PRP-026; P. acnes PRP-026, 200 μg per disc, sodium chloride 100 mM)?
The value was 48.25 mm.

And the “DDA + lipid” value (P. acnes PRP-026; P. acnes PRP-026, 200 μg per disc, triolein 1% v/v)?
The value was 43.89 mm.

What about the “(S)DDA” value (P. acnes NCTC 737) of the same molecule?
The value was 42.40 mm.

What does the source list for `O=C(Nc1ccc(Cl)cc1)Nc1ccc(Cl)c(Cl)c1` [TCC, N-(4-chlorophenyl)-N′-(3,4-dichlorophenyl) urea]?
DDA (P. acnes PRP-003; [1]): 23.64 mm; DDA (P. acnes PRP-010; [2]): 22.81 mm; DDA (P. acnes PRP-053; [3]): 21.58 mm; DDA (P. acnes PRP-002; [4]): 34.22 mm; DDA (P. acnes PRP-007; [5]): 13.87 mm; DDA (P. acnes PRP-101; [6]): 16.75 mm; DDA (P. acnes PRP-004; [7]): 15.42 mm; DDA (P. acnes PRP-017; [8]): 18.81 mm; DDA (P. acnes PRP-039): 18.91 mm; DDA (P. acnes PRP-023; [9]): 21.27 mm; DDA (P. acnes PRP-008; [10]): 14.80 mm; DDA (P. acnes PRP-059; [11]): 19.73 mm; DDA (P. acnes PRP-026; [12]): 22.71 mm; (S)DDA (P. acnes NCTC 737): 0 mm
